According to US11572369B2, “Bicyclic pyridine compositions and methods of using the same for cancer therapy” (UNIVERSITY OF SOUTH CAROLINA, priority 2019, dated 2023):

Columns and labels:
Assay in all cases: KINOMEscan
Assay type in all cases: binding
Details in all cases: 2000 nM
ACVR2B = target: T1, ACVR2B (Homo sapiens, UniProt Q13705)
T1 construct: purchased DiscoveRx (KINOMEscan scanMAX panel, service)

AKT1 = target: T2, AKT1 (Homo sapiens, UniProt P31749)
T2 construct: purchased DiscoveRx (KINOMEscan scanMAX panel, service)

BMPR1A = target: T3, BMPR1A (Homo sapiens, UniProt P36894)
T3 construct: DNA label (for qPCR read-out); purchased KINOMEscan scanMAX panel (DiscoveRx)

BUB1 = target: T4, BUB1 (Homo sapiens, UniProt O43683)
T4 construct: DNA label (for qPCR read-out); purchased KINOMEscan scanMAX panel (DiscoveRx)

CAMK1 = target: T5, CAMK1 (Homo sapiens, UniProt Q14012)
T5 construct: DNA label (qPCR read-out); purchased KINOMEscan (ScanMAX panel service)

CAMK1B = target: T6, CAMK1B (Homo sapiens, UniProt Q6P2M8)
T6 construct: DNA label (qPCR read-out); purchased KINOMEscan (ScanMAX panel service)

CAMK2B = target: T7, CAMK2B (Homo sapiens, UniProt Q13554)
T7 construct: DNA label (qPCR read-out); purchased KINOMEscan (ScanMAX panel service)

CDK3 = target: T8, CDK3 (Homo sapiens, UniProt Q00526)
T8 construct: purchased DiscoverX (KINOMEscan service)

CDK7 = target: T9, CDK7 (Homo sapiens, UniProt P50613)
T9 construct: purchased DiscoverX (KINOMEscan service)

CHEK2 = target: T10, CHEK2 (Homo sapiens, UniProt O96017)
T10 construct: DNA label (for qPCR read-out); purchased DiscoveRx (KINOMEscan scanMAX service)

CSNK1G1 = target: T11, CSNK1G1 (Homo sapiens, UniProt Q9HCP0)
T11 construct: DNA label; purchased DiscoveRx (KINOMEscan scanMAX panel)

CSNK2A2 = target: T12, CSNK2A2 (Homo sapiens, UniProt P19784)
T12 construct: DNA label; purchased DiscoveRx (KINOMEscan scanMAX panel)

DMPK2 = target: T13, DMPK2 (Homo sapiens, UniProt Q6DT37)
T13 construct: DNA label (qPCR read-out); purchased KINOMEscan (DiscoveRx) panel

EPHA8 = target: T14, EPHA8 (Homo sapiens, UniProt P29322)
T14 construct: purchased DiscoveRx (KINOMEscan scanMAX panel)

EPHB2 = target: T15, EPHB2 (Homo sapiens, UniProt P29323)
T15 construct: purchased DiscoveRx (KINOMEscan scanMAX panel)

ERBB2 = target: T16, ERBB2 (Homo sapiens, UniProt P04626)
T16 construct: DNA label (qPCR read-out); purchased DiscoveRx (KINOMEscan ScanMAX panel)

ERK1 = target: T17, ERK1 (Homo sapiens, UniProt P27361)
T17 construct: DNA label (qPCR read-out); purchased DiscoveRx (KINOMEscan ScanMAX panel)

ERN1 = target: T18, ERN1 (Homo sapiens, UniProt O75460)
T18 construct: DNA label (qPCR read-out); purchased DiscoveRx (KINOMEscan ScanMAX panel)

FGFR3(G697C) = target: T19, FGFR3(G697C) (Homo sapiens, UniProt P22607, G697C)
T19 construct: purchased DiscoveRx (KINOMEscan scanMAX panel)

FRK = target: T20, FRK (Homo sapiens, UniProt P42685)
T20 construct: purchased KINOMEscan (DiscoveRx)

GRK2 = target: T21, GRK2 (Homo sapiens, UniProt P25098)
T21 construct: DNA label (for qPCR read-out); purchased DiscoveRx (KINOMEscan scanMAX panel, contract assay)

KIT(V559D, V654A) = target: T22, KIT(V559D, V654A) (Homo sapiens, UniProt P10721, V559D/V654A)
T22 construct: purchased KINOMEscan (DiscoveRx) panel service

LYN = LYN (Homo sapiens, UniProt P07948)
MET = target: T23, MET (Homo sapiens, UniProt P08581)
T23 construct: purchased DiscoveRx (KINOMEscan scanMAX panel, service)

MST3 = target: T24, MST3 (Homo sapiens, UniProt Q9Y6E0)
T24 construct: DNA label (for qPCR read-out); purchased KINOMEscan scanMAX panel (DiscoveRx)

MTOR = target: T25, MTOR (Homo sapiens, UniProt P42345)
T25 construct: DNA label (for qPCR read-out); purchased KINOMEscan scanMAX panel (DiscoveRx)

p38-beta = target: T26, p38-beta (Homo sapiens, UniProt Q15759)
T26 construct: purchased DiscoverX (KINOMEscan service)

PAK1 = target: T27, PAK1 (Homo sapiens, UniProt Q13153)
T27 construct: purchased DiscoverX (KINOMEscan service)

PIK3CA(E545A) = target: T28, PIK3CA(E545A) (Homo sapiens, UniProt P42336, E545A)
T28 construct: DNA label; purchased DiscoveRx (KINOMEscan scanMAX panel)

PIK3CB = target: T29, PIK3CB (Homo sapiens, UniProt P42338)
T29 construct: DNA label; purchased DiscoveRx (KINOMEscan scanMAX panel)

PKAC-alpha = target: T30, PKAC-alpha (Homo sapiens, UniProt P17612)
T30 construct: DNA label (qPCR read-out); purchased KINOMEscan (DiscoveRx) panel

PKNB(M.tuberculosis) = target: T31, PKNB(M.tuberculosis) (Mycobacterium tuberculosis, UniProt P9WI81)
T31 construct: purchased DiscoveRx (KINOMEscan scanMAX panel)

RAF1 = target: T32, RAF1 (Homo sapiens, UniProt P04049)
T32 construct: purchased DiscoveRx (KINOMEscan scanMAX panel)

TESK1 = target: T33, TESK1 (Homo sapiens, UniProt Q15569)
T33 construct: DNA label (for qPCR read-out); purchased DiscoveRx (KINOMEscan scanMAX panel, contract assay)

TNNI3K = target: T34, TNNI3K (Homo sapiens, UniProt Q59H18)
T34 construct: DNA label (qPCR read-out); purchased KINOMEscan (DiscoveRx) ScanMAX panel

WNK1 = target: T35, WNK1 (Homo sapiens, UniProt Q9H4A3)
T35 construct: purchased KINOMEscan (DiscoveRx) panel service

ZAP70 = ZAP70 (Homo sapiens, UniProt P43403)

T27 sequence (Q13153 whole entry): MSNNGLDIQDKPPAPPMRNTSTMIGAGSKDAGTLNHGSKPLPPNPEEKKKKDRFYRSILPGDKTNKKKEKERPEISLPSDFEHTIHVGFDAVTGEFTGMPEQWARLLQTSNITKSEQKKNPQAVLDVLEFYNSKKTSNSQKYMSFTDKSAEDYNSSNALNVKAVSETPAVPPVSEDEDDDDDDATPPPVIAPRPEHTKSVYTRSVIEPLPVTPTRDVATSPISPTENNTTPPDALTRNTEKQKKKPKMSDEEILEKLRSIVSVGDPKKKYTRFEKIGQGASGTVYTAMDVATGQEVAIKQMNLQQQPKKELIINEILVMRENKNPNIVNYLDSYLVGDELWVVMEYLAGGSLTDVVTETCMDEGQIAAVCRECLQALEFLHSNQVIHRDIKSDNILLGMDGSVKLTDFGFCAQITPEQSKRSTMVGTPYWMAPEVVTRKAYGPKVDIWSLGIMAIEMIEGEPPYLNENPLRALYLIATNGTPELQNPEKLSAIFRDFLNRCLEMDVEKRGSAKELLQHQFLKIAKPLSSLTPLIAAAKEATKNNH
T9 sequence (P50613 whole entry): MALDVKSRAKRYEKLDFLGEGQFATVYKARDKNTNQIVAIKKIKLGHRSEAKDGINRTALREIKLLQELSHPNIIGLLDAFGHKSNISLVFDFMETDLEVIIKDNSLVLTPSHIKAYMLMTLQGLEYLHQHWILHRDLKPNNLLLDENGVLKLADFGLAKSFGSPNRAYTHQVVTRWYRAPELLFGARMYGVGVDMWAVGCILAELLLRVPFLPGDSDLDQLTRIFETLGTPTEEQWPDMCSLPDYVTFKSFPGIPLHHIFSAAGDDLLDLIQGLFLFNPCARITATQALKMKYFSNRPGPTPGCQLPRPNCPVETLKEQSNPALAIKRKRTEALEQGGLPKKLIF
T2 sequence (P31749 whole entry): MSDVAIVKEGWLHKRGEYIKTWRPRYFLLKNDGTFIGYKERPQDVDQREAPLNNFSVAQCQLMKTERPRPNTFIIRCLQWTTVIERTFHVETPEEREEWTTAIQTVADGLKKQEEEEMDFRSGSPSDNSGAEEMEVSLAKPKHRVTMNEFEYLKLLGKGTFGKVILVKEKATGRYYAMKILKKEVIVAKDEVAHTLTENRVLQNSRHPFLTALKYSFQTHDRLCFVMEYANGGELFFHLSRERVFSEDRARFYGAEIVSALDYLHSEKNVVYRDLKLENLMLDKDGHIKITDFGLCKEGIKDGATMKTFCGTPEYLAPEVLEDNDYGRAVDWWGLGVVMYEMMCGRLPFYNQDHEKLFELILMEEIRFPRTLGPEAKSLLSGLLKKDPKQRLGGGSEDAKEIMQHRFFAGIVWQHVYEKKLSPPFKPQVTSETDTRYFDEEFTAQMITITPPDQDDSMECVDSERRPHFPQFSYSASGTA
T3 sequence (P36894 24-532): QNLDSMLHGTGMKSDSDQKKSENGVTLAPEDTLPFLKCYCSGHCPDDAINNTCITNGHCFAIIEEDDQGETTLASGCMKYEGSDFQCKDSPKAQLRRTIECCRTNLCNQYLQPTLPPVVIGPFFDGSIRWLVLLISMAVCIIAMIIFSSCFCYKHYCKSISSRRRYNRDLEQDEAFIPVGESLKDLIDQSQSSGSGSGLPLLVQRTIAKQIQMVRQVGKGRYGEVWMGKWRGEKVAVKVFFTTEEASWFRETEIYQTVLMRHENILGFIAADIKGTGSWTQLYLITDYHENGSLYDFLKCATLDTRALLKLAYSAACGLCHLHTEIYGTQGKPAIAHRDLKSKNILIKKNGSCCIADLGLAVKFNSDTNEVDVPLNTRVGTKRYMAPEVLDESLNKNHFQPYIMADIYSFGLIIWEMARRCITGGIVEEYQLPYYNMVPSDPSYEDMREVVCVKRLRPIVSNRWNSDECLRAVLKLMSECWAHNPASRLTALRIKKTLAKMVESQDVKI
T28 sequence (P42336 whole entry E545A): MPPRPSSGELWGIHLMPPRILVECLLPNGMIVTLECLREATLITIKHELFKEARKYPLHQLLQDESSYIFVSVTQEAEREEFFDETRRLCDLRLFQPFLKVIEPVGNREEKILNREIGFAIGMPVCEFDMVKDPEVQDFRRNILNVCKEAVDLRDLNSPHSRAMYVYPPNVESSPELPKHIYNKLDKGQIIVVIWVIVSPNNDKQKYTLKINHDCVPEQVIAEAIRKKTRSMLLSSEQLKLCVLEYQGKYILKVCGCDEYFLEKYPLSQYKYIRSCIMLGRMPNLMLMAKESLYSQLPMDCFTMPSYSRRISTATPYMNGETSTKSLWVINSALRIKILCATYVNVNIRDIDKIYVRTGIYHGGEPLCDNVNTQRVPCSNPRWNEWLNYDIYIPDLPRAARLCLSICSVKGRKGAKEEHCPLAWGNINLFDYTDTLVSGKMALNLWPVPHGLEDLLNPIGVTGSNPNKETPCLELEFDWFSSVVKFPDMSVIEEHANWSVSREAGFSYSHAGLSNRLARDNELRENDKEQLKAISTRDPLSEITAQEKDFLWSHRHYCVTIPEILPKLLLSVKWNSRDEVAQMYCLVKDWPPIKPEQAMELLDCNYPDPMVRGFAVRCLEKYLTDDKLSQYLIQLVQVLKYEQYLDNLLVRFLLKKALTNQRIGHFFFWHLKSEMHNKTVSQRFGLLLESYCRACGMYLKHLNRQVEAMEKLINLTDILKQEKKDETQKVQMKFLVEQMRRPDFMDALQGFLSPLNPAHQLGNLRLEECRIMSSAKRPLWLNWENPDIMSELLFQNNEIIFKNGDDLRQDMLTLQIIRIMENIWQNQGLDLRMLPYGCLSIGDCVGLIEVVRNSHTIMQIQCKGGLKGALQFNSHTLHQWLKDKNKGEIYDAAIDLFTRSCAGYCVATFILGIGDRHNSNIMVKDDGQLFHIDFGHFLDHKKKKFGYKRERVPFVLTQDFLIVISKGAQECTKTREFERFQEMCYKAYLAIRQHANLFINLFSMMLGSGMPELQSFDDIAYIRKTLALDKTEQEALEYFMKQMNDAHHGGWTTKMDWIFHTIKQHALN
T10 sequence (O96017 whole entry): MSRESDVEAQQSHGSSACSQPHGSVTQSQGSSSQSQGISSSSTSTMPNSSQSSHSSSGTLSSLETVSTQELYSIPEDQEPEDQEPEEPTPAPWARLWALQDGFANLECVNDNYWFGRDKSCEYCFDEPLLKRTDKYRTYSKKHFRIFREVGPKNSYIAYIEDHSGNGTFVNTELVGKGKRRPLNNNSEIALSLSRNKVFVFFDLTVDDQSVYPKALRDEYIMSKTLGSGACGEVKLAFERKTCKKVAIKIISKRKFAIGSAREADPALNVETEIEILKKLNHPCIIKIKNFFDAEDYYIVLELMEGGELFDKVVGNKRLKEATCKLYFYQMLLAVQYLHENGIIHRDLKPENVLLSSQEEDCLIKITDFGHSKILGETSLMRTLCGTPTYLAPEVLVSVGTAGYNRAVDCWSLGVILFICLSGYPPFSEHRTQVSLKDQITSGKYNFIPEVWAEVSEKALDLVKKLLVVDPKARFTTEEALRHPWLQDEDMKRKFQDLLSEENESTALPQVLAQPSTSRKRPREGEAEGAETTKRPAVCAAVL
T5 sequence (Q14012 whole entry): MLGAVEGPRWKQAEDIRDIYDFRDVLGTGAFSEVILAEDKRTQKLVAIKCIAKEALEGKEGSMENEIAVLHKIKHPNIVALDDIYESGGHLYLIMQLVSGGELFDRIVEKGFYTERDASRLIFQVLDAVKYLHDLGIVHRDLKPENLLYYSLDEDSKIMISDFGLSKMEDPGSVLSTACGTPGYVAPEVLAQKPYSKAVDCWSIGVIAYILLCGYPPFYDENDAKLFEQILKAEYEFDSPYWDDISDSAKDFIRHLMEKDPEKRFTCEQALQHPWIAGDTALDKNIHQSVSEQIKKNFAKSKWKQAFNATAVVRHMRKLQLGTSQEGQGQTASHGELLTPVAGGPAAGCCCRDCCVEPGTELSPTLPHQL
T18 sequence (O75460 19-977): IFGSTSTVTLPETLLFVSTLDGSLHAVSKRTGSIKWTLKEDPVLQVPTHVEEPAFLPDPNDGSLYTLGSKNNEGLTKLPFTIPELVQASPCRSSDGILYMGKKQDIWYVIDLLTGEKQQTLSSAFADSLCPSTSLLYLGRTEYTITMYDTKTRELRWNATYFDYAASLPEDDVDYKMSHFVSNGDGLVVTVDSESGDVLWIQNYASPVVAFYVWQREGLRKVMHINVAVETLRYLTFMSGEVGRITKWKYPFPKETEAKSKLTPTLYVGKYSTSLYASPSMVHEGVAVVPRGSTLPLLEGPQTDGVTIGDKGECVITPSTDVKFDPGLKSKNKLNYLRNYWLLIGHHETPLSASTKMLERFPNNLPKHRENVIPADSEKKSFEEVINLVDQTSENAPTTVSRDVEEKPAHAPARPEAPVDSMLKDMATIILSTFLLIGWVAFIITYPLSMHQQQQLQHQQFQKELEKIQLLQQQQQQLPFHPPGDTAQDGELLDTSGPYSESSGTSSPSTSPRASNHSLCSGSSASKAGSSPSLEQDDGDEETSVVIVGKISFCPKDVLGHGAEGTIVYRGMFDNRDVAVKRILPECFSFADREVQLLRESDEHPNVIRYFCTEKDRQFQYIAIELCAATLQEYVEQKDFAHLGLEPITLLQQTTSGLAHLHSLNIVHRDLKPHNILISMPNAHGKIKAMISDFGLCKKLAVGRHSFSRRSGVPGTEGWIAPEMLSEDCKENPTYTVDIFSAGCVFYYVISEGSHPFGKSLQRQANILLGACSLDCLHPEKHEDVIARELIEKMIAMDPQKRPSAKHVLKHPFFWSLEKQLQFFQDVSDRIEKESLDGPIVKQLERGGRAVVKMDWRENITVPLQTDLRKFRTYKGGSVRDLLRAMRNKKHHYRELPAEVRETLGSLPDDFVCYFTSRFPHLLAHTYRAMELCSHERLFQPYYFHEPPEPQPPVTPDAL

| Structure (SMILES) | % Ctrl (ACVR2B) | % Ctrl (AKT1) | % Ctrl (BMPR1A) | % Ctrl (BUB1) | % Ctrl (CAMK1) | % Ctrl (CAMK1B) | % Ctrl (CAMK2B) | % Ctrl (CDK3) | % Ctrl (CDK7) | % Ctrl (CHEK2) | % Ctrl (CSNK1G1) | % Ctrl (CSNK2A2) | % Ctrl (DMPK2) | % Ctrl (EPHA8) | % Ctrl (EPHB2) | % Ctrl (ERBB2) | % Ctrl (ERK1) | % Ctrl (ERN1) | % Ctrl (FGFR3(G697C)) | % Ctrl (FRK) | further results |
| --- | --- | --- | --- | --- | --- | --- | --- | --- | --- | --- | --- | --- | --- | --- | --- | --- | --- | --- | --- | --- | --- |
| CN(C)C(=O)c1ccc(N2CCCN(c3ccnc4sc(C(N)=O)c(N)c34)CC2)cc1 [15u, 3-amino-4-(4-(4-(dimethylcarbamoyl)phenyl)-1,4-diazepan-1-yl)thieno[2,3-b]pyridine-2-carboxamide] | 100 % Ctrl | 100 % Ctrl | 100 % Ctrl | 88 % Ctrl | 83 % Ctrl | 100 % Ctrl | 92 % Ctrl | 92 % Ctrl | 100 % Ctrl | 92 % Ctrl | 90 % Ctrl | 92 % Ctrl | 93 % Ctrl | 94 % Ctrl | 99 % Ctrl | 100 % Ctrl | 100 % Ctrl | 100 % Ctrl | 95 % Ctrl | 100 % Ctrl | % Ctrl (GRK2): 88 % Ctrl; % Ctrl (KIT(V559D, V654A)): 100 % Ctrl; % Ctrl (LYN): 100 % Ctrl; % Ctrl (MET): 99 % Ctrl; % Ctrl (MST3): 97 % Ctrl; % Ctrl (MTOR): 88 % Ctrl; % Ctrl (p38-beta): 100 % Ctrl; % Ctrl (PAK1): 96 % Ctrl; % Ctrl (PIK3CA(E545A)): 100 % Ctrl; % Ctrl (PIK3CB): 100 % Ctrl; % Ctrl (PKAC-alpha): 95 % Ctrl; % Ctrl (PKNB(M.tuberculosis)): 100 % Ctrl; % Ctrl (RAF1): 97 % Ctrl; % Ctrl (TESK1): 83 % Ctrl; % Ctrl (TNNI3K): 100 % Ctrl; % Ctrl (WNK1): 100 % Ctrl; % Ctrl (ZAP70): 95 % Ctrl |
| [2H]C([2H])([2H])N(C(=O)c1ccc(N2CCCN(c3ccnc4sc(C(N)=O)c(N)c34)CC2)cc1)C([2H])([2H])[2H] [15u_D6, 3-amino-4-(4-(4-(bis(methyl-d3)carbamoyl)phenyl)-1,4-diazepan-1-yl)thieno[2,3-b]pyridine-2-carboxamide] | 86 % Ctrl | 100 % Ctrl | 100 % Ctrl | 80 % Ctrl | 95 % Ctrl | 70 % Ctrl | 87 % Ctrl | 97 % Ctrl | 78 % Ctrl | 92 % Ctrl | 80 % Ctrl | 100 % Ctrl | 94 % Ctrl | 83 % Ctrl | 95 % Ctrl | 89 % Ctrl | 97 % Ctrl | 80 % Ctrl | 100 % Ctrl | 97 % Ctrl | % Ctrl (GRK2): 70 % Ctrl; % Ctrl (KIT(V559D, V654A)): 100 % Ctrl; % Ctrl (LYN): 98 % Ctrl; % Ctrl (MET): 92 % Ctrl; % Ctrl (MST3): 84 % Ctrl; % Ctrl (MTOR): 97 % Ctrl; % Ctrl (p38-beta): 97 % Ctrl; % Ctrl (PAK1): 92 % Ctrl; % Ctrl (PIK3CA(E545A)): 92 % Ctrl; % Ctrl (PIK3CB): 95 % Ctrl; % Ctrl (PKAC-alpha): 100 % Ctrl; % Ctrl (PKNB(M.tuberculosis)): 90 % Ctrl; % Ctrl (RAF1): 100 % Ctrl; % Ctrl (TESK1): 100 % Ctrl; % Ctrl (TNNI3K): 100 % Ctrl; % Ctrl (WNK1): 93 % Ctrl; % Ctrl (ZAP70): 87 % Ctrl |
